Test results taken from US10035766B2, “Compositions for preventing and/or treating lysosomal storage disorders” (Amicus Therapeutics, Inc., priority 2009, dated 2018).
Substitutions are numbered along the chain they refer to. Counter-ions that a name gives are not always drawn. Like-named read-outs stand apart in the source and are kept apart here.

Key:
lysosomal GCase = target: T1, lysosomal GCase (Homo sapiens, UniProt P04062); experiment: In situ lysosomal GCase inhibition and washout in fibroblasts from a normal subject (PFBFDβGlu substrate); assay type: cell-based; conditions: for in situ washout: after 16-24 hours at IC90, single exponential fit of activity recovery over 8 hours; for IC50: fibroblasts, compound 16-24 hours, substrate 1 hour
T1 construct: fibroblasts established from a normal subject; endogenous in cells; host or cells: fibroblasts established from a normal subject
T1 sequence (P04062 40-536): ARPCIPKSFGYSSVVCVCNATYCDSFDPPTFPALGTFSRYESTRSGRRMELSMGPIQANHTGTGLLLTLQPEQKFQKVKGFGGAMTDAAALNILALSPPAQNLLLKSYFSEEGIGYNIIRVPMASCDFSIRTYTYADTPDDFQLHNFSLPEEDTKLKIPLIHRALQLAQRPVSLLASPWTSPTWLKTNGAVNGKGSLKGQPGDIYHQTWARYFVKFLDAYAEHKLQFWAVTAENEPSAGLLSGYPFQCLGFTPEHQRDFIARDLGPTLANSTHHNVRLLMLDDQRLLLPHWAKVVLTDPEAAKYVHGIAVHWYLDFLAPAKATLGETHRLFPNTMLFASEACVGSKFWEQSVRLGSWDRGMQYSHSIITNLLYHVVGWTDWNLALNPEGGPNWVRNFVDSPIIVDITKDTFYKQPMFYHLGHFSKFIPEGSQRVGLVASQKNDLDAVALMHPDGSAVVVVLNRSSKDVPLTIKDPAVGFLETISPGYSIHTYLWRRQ
Experimental: The effect of the novel compounds of the present invention on lysosomal GCase activity was assayed in situ using fibroblasts established from a normal subject. Cells seeded in 48-well plates were incubated with the indicated concentrations of compound for 16-24 hours. For the dose-response assays, cells were incubated with the in situ substrate 5-(pentafluorobenzoylamino)fluorescein di-β-D-glucopyranoside (PFBFDβGlu) for 1 hour and subsequently lysed to determine the extent of substrate hydrolysis in the presence of compound. […] Inhibition was determined as the ratio of activity in the presence of compound to that in the absence of compound. […] Cells were washed extensively and incubated in drug-free medium to allow net compound efflux from cells. Cells were then tested for lysosomal GCase activity at 2 hour intervals over a total period of 8 hours following compound removal. The increase in activity over time was fitted with a single exponential function to determine the compound's washout time.

GCase = target: T2, GCase (Homo sapiens, UniProt P04062); experiment: GCase activity enhancement (EC50, Emax) of Table 2B; assay type: cell-based
T2 sequence (P04062 40-536): T1 sequence (P04062 40-536)

[1] = target: T3, recombinant human GCase (rhGCase; Cerezyme®) (Homo sapiens, UniProt P04062, R534H); experiment: In vitro enzyme inhibition assay (4-MU-β-D-Glc hydrolysis) for IC50 and Ki; assay type: biochemical; conditions: for Ki: Cheng-Prusoff from IC50
T3 construct: purchased Genzyme Corp
T3 sequence (P04062 40-536 R534H): T1 sequence (P04062 40-536) with R495H
Experimental: The binding affinity (defined here by Ki binding constant) of GCase for novel compounds of the present invention were empirically determined using enzyme inhibition assays. In brief, the enzyme inhibition assays used monitored the ability of a test compound to bind and prevent the hydrolysis of a fluorogenic substrate in a concentration-dependent manner. Specifically, the enzyme activity of recombinant human GCase (rhGCase; Cerezyme®, Genzyme Corp.) was measured using the 4-methylumbelliferyl-β-D-glucopyranoside (4-MU-β-D-Glc) fluorogenic substrate in the absence or in the presence of varying amounts of each test compound. […] The enzyme inhibition assays were performed at both pH 7.0 (endoplasmic reticulum pH) and at pH 5.2 (lysosomal pH) to gain insight into the binding affinity (i.e., potency) of compounds for GCase in the endoplasmic reticulum and lysososome.
Various concentrations of test compounds were prepared in buffer “M” consisting of 50 mM sodium phosphate buffer with 0.25% sodium taurocholate at pH 7.0 and pH 5.2. Enzyme (Cerezyme®, a recombinant form of the human enzyme β-glucocerebrosidase) was also diluted in the same buffer “M” at pH 7.0 and pH 5.2. […] Five microliters of diluted enzyme was added to 15 μl of the various inhibitor concentrations or buffer “M” alone and incubated at 37° C. for 1 hour with 50 μl of the substrate preparation to assess β-glucosidase activity at pH 7.0 and pH 5.2. […] Fluorescence was measured on a plate reader for 1 sec/well using 355 nm excitation and 460 nm emission.

[2] = pH 5.2 (lysosomal pH), read-out: Ki (μM) pH 5.2
[3] = pH 5.2 (lysosomal pH), read-out: IC50 (μM) pH 5.2
[4] = pH 7.0 (endoplasmic reticulum pH), read-out: Ki (μM) pH 7.0
[5] = pH 7.0 (endoplasmic reticulum pH), read-out: IC50 (μM) pH 7.0

Row | Structure (SMILES) | in situ washout (lysosomal GCase) | IC50 (lysosomal GCase) | EC50 (GCase) | Emax (%) (GCase) | Ki [1, 2] | IC50 [1, 3] | Ki [1, 4] | IC50 [1, 5] | Emax (GCase) | inhibition of GCase activity (lysosomal GCase) | GCase activity enhancement compared to reference compound IFG-tartrate (GCase; same maximum level as IFG-tartrate at much lower concentration)
1 | C[C@@H](O)[C@H]1CNC[C@@H](O)[C@@H]1O [Compound 9, (3R,4R,5R)-5((R)-1-Hydroxyethyl)piperdine 3,4-diol] | 10.5 ± 1.75 h | 518 ± 22 nM | 490 ± 60 nM | 83.7 ± 2.9% | 0.044 ± 0.0017 µM | 0.107 ± 0.0041 µM | 0.01 ± 0.0004 µM | 0.02 ± 0.0008 µM | – | – | –
2 | C[C@@H](F)[C@H]1CNC[C@@H](O)[C@@H]1O [Compound 14, (3R,4R,5R)-5((R)-(1-Fluoroethyl)piperdine 3,4-diol Hydrochloride] | 3.7 ± 0.63 h | 61 ± 19 nM | 26 ± 3 nM | – | 0.016 ± 0.0007 µM | 0.038 ± 0.0016 µM | 0.004 ± 0.0001 µM | 0.007 ± 0.0003 µM | 89.7 ± 3.5% | – | –
3 | CC(O)C1CNCC(O)C1O (single isomer, unassigned) [Compound 10] | 12 ± 1.65 h | – | – | – | – | – | – | – | 99.3 ± 4.9% | – | –
4 | CC(C)(O)[C@H]1CNC[C@@H](O)[C@@H]1O [(3R,4R,5S)-5-(2-hydroxypropan-2-yl)piperidine-3,4-diol] | – | – | – | – | – | – | – | – | 109 ± 3.6% | – | –
5 | O[C@@H]1[C@@H]([C@H](O)c2ccccc2)CNC[C@H]1O [(3R,4R,5R)-5-((S)-hydroxy(phenyl)methyl)-piperidine-3,4-diol] | – | – | – | – | – | – | – | – | 72.1 ± 3.5% | – | –
6 | C[C@H](F)[C@H]1CNC[C@@H](O)[C@@H]1O [Compound 13, (3R,4R,5R)-5((S)-1-Fluoroethyl)piperdine 3,4-diol Hydrochloride] | 2.7 ± 0.12 h | 650 ± 172 nM | 44 ± 5 nM | – | 0.0498 ± 0.0015 µM | 0.0946 ± 0.0028 µM | 0.009 ± 0.0004 µM | 0.0171 ± 0.0008 µM | 92.8 ± 6.6% | – | –
7 | CC(O)[C@H]1CNC[C@@H](O)[C@@H]1O (single isomer, unassigned) | – | – | – | – | – | – | – | – | – | inhibited GCase activity | concentration-dependent increase in GCase activity
